In ChEMBL document CHEMBL4699616, “Novel deoxyvasicinone and tetrahydro-beta-carboline hybrids as inhibitors of acetylcholinesterase and amyloid beta aggregation” (Bioorg Med Chem Lett, 2020):
The source made the active and inactive calls. The rule behind the calls is not given here.

Columns and labels:
SH-SY5Y [1] = test: Neuroprotective activity against amyloid beta (1 to 42) induced cell damage in human SH-SY5Y cells assessed as increase in cell viability at 1 to 10 uM measured after 48 hrs; format: functional, cell-based; conditions: dose microM 1-10, time 48.0 hrs
[2] = Cytotoxicity against human SH-SY5Y cells assessed as cell viability at 10 uM after 48 hrs by MTT assay relative to control; format: cell-based; conditions: read-out: Activity
[3] = target: T1, Amyloid-beta precursor protein (Homo sapiens, UniProt P05067)
Description: Inhibition of amyloid beta (1 to 42) (unknown origin) self aggregation incubated for 48 hrs by thioflavin-T fluorescence method

Cholinesterase [4] = target: T2, Cholinesterase (Homo sapiens, UniProt P06276)
Description: Inhibition of human serum BuChe by Ellman's method

SH-SY5Y [5] = test: Cytotoxicity against human SH-SY5Y cells assessed as effect on cell viability at 0.1 uM after 48 hrs by MTT assay; format: cell-based
Acetylcholinesterase [6] = target: T3, Acetylcholinesterase (Homo sapiens, UniProt P22303); test: Inhibition of human erythrocytes AChE by Ellman's method; format: cell-based, Erythrocyte
SH-SY5Y [7] = test: Neuroprotective activity against amyloid beta (1 to 42) induced cell damage in human SH-SY5Y cells assessed as increase in cell viability at 0.1 uM measured after 48 hrs; format: functional, cell-based
[8] = target: T1, Amyloid-beta precursor protein; test: Potency index, ratio of resveratrol IC50 to test compound IC50 for inhibition of amyloid beta (1 to 42) (unknown origin) self aggregation
SH-SY5Y [9] = test: Cytotoxicity against human SH-SY5Y cells assessed as effect on cell viability at 0.1 to 1 uM after 48 hrs by MTT assay; format: cell-based; conditions: dose 0.1-1 µM
[10] = target: T1, Amyloid-beta precursor protein; test: Inhibition of amyloid beta (1 to 42) (unknown origin) self aggregation at 20 uM incubated for 48 hrs by thioflavin-T fluorescence method relative to control
Acetylcholinesterase [11] = target: T3, Acetylcholinesterase; test: Inhibition of human erythrocytes AChE at 1 uM by Ellman's method relative to control; format: cell-based; conditions: Erythrocyte
Cholinesterase [12] = target: T2, Cholinesterase; test: Inhibition of human serum BuChe at 1 uM by Ellman's method relative to control; format: cell-free
Acetylcholinesterase [13] = target: T3, Acetylcholinesterase; test: Inhibition of human erythrocytes AChE using acetylthiocholine iodide as substrate preincubated for 4.5 mins followed by substrate addition measured after 2.5 mins by Ellman's method; parameters: species or system Erythrocyte

T3 sequence (P22303 whole entry): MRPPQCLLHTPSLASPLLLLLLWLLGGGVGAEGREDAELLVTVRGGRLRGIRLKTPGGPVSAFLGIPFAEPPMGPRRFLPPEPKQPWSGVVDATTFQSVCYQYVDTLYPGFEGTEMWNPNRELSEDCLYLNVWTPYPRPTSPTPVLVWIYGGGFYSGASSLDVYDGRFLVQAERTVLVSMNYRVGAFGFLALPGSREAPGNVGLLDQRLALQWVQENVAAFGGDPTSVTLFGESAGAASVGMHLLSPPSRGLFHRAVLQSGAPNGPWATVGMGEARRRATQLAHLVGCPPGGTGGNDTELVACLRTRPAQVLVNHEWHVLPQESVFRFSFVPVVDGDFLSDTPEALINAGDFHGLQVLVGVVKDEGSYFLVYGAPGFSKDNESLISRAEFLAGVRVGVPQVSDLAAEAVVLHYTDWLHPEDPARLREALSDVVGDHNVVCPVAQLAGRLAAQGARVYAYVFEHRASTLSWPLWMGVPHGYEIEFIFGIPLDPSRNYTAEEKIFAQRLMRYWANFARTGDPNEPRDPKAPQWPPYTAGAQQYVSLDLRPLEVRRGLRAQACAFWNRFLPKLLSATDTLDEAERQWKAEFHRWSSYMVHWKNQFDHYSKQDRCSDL
T1 sequence (P05067 whole entry): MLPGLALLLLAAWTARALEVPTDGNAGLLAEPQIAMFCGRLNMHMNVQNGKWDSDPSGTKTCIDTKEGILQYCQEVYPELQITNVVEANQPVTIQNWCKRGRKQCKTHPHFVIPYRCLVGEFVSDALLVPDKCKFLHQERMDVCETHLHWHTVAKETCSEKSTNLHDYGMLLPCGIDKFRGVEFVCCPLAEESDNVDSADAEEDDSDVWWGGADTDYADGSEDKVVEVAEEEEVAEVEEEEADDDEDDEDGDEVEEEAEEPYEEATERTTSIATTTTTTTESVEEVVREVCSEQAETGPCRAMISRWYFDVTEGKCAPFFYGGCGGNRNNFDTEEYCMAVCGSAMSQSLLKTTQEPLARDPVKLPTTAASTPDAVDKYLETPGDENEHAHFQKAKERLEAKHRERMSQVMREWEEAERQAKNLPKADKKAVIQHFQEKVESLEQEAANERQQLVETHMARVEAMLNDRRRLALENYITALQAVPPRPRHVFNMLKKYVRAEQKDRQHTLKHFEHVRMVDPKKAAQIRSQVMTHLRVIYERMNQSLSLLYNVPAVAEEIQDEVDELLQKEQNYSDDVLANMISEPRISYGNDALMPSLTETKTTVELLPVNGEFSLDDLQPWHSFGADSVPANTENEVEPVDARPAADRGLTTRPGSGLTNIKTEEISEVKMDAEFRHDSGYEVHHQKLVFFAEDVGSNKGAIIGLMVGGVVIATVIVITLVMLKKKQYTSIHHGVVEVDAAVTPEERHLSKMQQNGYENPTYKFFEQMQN
T2 sequence (P06276 whole entry): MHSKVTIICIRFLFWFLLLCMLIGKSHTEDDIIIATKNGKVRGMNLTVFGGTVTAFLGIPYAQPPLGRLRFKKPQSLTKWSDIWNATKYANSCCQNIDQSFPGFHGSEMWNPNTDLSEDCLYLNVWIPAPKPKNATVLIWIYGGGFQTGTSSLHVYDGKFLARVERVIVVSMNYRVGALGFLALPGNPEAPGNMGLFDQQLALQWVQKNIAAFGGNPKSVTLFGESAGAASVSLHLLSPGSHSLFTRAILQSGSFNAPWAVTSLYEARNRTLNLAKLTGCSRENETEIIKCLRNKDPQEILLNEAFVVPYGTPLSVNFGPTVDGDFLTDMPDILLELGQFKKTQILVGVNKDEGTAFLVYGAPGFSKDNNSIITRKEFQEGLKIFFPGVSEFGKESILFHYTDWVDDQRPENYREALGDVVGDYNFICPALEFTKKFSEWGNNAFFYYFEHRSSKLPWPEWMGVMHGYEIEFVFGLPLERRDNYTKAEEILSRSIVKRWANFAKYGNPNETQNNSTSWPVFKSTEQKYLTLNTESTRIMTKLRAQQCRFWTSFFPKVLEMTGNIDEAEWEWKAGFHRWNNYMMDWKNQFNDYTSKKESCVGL

O=C(CCN1CCC2c3ccccc3NC2C1)Oc1ccc(/C=C2\CCn3c2nc2ccccc2c3=O)cc1 (stereo not given)
Activity (SH-SY5Y [1]): Active | viability at 48 h, 10 µM [2]: > 76% | IC50 [3]: 19.7 µM | IC50 (Cholinesterase [4]): 0.0692 µM | Activity (SH-SY5Y [5]): Non-Toxic | IC50 (Acetylcholinesterase [6]): 0.00093 µM

O=C(CCCCN1CCC2c3ccccc3NC2C1)Oc1ccc(/C=C2\CCn3c2nc2ccccc2c3=O)cc1 (stereo not given)
Activity (SH-SY5Y [7]): Active | Ratio IC50 [8]: 6 | Activity (SH-SY5Y [1]): Active | viability at 48 h, 10 µM [2]: > 76% | IC50 [3]: 2.05 µM | IC50 (Cholinesterase [4]): 0.422 µM | IC50 (Acetylcholinesterase [6]): 0.00108 µM | Activity (SH-SY5Y [9]): Non-Toxic

O=C(CCCN1CCC2c3ccccc3NC2C1)Nc1ccc(/C=C2\CCn3c2nc2ccccc2c3=O)cc1 (stereo not given)
inhibition [10]: 21.2% | inhibition (Acetylcholinesterase [11]): 49.9% | IC50 (Cholinesterase [4]): 0.215 µM

O=c1c2ccccc2nc2n1CCC2
inhibition [10]: 20.7% | inhibition (Acetylcholinesterase [11]): 29.7% | inhibition (Cholinesterase [12]): 40.5%

O=C(CCCCCN1CCC2c3ccccc3NC2C1)Oc1ccc(/C=C2\CCn3c2nc2ccccc2c3=O)cc1 (stereo not given)
IC50 [3]: 15.1 µM | IC50 (Cholinesterase [4]): 0.507 µM | IC50 (Acetylcholinesterase [6]): 0.0107 µM

O=C(CN1CCC2c3ccccc3NC2C1)Oc1ccc(/C=C2\CCn3c2nc2ccccc2c3=O)cc1 (stereo not given)
inhibition [10]: 38.8% | IC50 (Cholinesterase [4]): 0.238 µM | IC50 (Acetylcholinesterase [6]): 0.216 µM

O=C(CCCN1CCC2c3ccccc3NC2C1)Oc1ccc(/C=C2\CCn3c2nc2ccccc2c3=O)cc1 (stereo not given)
inhibition [10]: 41.5% | IC50 (Cholinesterase [4]): 0.0441 µM | IC50 (Acetylcholinesterase [6]): 0.0165 µM

O=C(CN1CCC2c3ccccc3NC2C1)Nc1ccc(/C=C2\CCn3c2nc2ccccc2c3=O)cc1 (stereo not given)
inhibition [10]: 37.5% | inhibition (Acetylcholinesterase [11]): 21.6% | IC50 (Cholinesterase [4]): 0.596 µM

O=C(CCCCN1CCC2c3ccccc3NC2C1)Nc1ccc(/C=C2\CCn3c2nc2ccccc2c3=O)cc1 (stereo not given)
inhibition [10]: 27.9% | IC50 (Cholinesterase [4]): 0.0328 µM | IC50 (Acetylcholinesterase [6]): 0.0983 µM

O=C(CCN1CCC2c3ccccc3NC2C1)Nc1ccc(/C=C2\CCn3c2nc2ccccc2c3=O)cc1 (stereo not given)
inhibition [10]: 31.6% | IC50 (Cholinesterase [4]): 0.726 µM | IC50 (Acetylcholinesterase [6]): 0.00975 µM

O=C(CCCCCN1CCC2c3ccccc3NC2C1)Nc1ccc(/C=C2\CCn3c2nc2ccccc2c3=O)cc1 (stereo not given)
IC50 [3]: 18.3 µM | IC50 (Cholinesterase [4]): 0.486 µM | IC50 (Acetylcholinesterase [6]): 0.153 µM

O=C(O)C1NCCC2c3ccccc3NC12 (stereo not given)
inhibition [10]: 20.7% | inhibition (Acetylcholinesterase [11]): 29.7% | inhibition (Cholinesterase [12]): 40.5%

O=c1c2cc(OCCCN3CCCCC3)ccc2nc2n1CCC2
IC50 (Acetylcholinesterase [13]): 0.05 µM
